System: dispersed rat anterior pituitary cells (release of rat growth hormone)
Assay: In Vitro (Cell Dispersion) Assay of GRF: growth hormone release measured by RIA
Assay type: cell-based, rat (Sprague-Dawley)
Settings: growth hormone release from cultured rat pituitary cells, 4 hours of incubation, peptide 0.8 to 200 fmol per ml; compared with natural GRF(1-44)-NH2 (= 1.0)
Protocol: In Vitro (Cell Dispersion) Assay of GRF
Pituitaries from 30-40 male Sprague-Dawley rats (175 g) were removed aseptically after decapitation. The anterior lobes were collected, washed 3 times in sterile Hepes buffer (0.025 M) (pH 7.35) and dispersed at 37° in 20-30 ml Hepes buffer (pH 7.35) containing collagenase (4 mg per ml) and Dispase (Protease grade II, 2 mg per ml). After gentle 100-110 min vortexing and trituration by Pasteur pipette, the dispersed cells were separated by centrifugation (150×g, 4 min) and re-suspended in Hepes buffer containing neuraminidase ([…]), and 200 µg/ml ethylenediaminetetraacetic acid (EDTA) disodium salt, pH 7.35, for 10 min.
The cells were washed twice with plating medium and plated on multiwell-plates (1.5×10^5 cells per ml) using the following defined medium: F-12/DMEM/BGJ (6:3:1) (Gibco: 430-1700/430-1600/320-2591) with 2 g BSA/1., 2.38 g Hepes/1.50 mg PSN antibiotic mixture (Gibco Laboratories), 10 mg/l transferring (Sigma T2252) with 1.83 g NaHCO3 /l (Baker 3506). The medium in each well was supplemented either with a sample of the novel GRF peptide or natural GRF(1-44)-NH2 at concentrations ranging from 0.8 to 200 fmol per ml of medium. Control wells contained no supplement. Plating was done with this medium added with 2% fetal calf serum to ensure rapid fixation of the cells.
On the fourth day, the cells were washed twice with the defined medium without fetal calf serum. Finally, 900 μl of defined medium was added to each well plus 100 μl of the same medium containing each individual treatment, in triplicate. After 4 hours of incubation the medium was collected and diluted as required to conduct radioimmunoassay (RIAs) for rat growth hormone.
RIAs for rat growth hormone were conducted using Sinha's anti-murine GH immune serum and procedures according to the National Pituitary Agency using protein A to precipitate antibody antigen complex.

Compound | RELATIVE POTENCY
CC[C@H](C)[C@H](NC(=O)[C@H](C)NC(=O)[C@H](CC(=O)O)NC(=O)[C@H](C)NC(=O)[C@@H](N)Cc1ccc(O)cc1)C(=O)N[C@@H](Cc1ccccc1)C(=O)N[C@H](C(=O)N[C@@H](CC(N)=O)C(=O)N[C@@H](CO)C(=O)N[C@@H](Cc1ccc(O)cc1)C(=O)N[C@@H](CCCNC(=N)N)C(=O)N[C@@H](CCCCN)C(=O)N[C@H](C(=O)N[C@@H](CC(C)C)C(=O)NCC(=O)N[C@@H](CCC(N)=O)C(=O)N[C@@H](CC(C)C)C(=O)N[C@@H](CO)C(=O)N[C@@H](C)C(=O)N[C@@H](CCCNC(=N)N)C(=O)N[C@@H](CCCCN)C(=O)N[C@@H](CC(C)C)C(=O)N[C@@H](CC(C)C)C(=O)N[C@@H](CCC(N)=O)C(=O)N[C@@H](CC(=O)O)C(=O)N[C@H](C(=O)N[C@@H](CCSC)C(=O)N[C@@H](CO)C(=O)N[C@@H](CCCNC(=N)N)C(=O)N[C@@H](CCC(N)=O)C(=O)N[C@@H](CCC(N)=O)C(=O)NCC(=O)N[C@@H](CCC(=O)O)C(=O)N[C@@H](CO)C(=O)N[C@@H](CC(N)=O)C(=O)N[C@@H](CCC(N)=O)C(=O)N[C@@H](CCC(=O)O)C(=O)N[C@@H](CCCNC(=N)N)C(=O)NCC(=O)N[C@@H](C)C(=O)N[C@@H](CCCNC(=N)N)C(=O)N[C@@H](C)C(=O)N[C@@H](CCCNC(=N)N)C(=O)N[C@@H](CC(C)C)C(N)=O)[C@@H](C)CC)C(C)C)[C@@H](C)O [GRF(1-44)--NH2, GRF(1-44)-NH2, reference compound] | 1.0
Cyclo^8,12;21,25 [Asp^8, Ala^15 ]-GRF(1-29)-NH2 | 2.24
Cyclo^8,12;21,25 [N-MethylTyr^1,D-Ala^2, Asp^8, Ala^15 ]-GRF(1-29)-NH2 | 0.61
Cyclo^21,21 [N-MethylTyr^1, D-Ala^2, Ala^15 ]-GRF(1-29)-NH2 | 1.92
Cyclo^21,25 [Ala^15 ]-GRF(1-29)-NH2 [Cyclo^21,25 --[Ala^15]--GRF(1-29)--NH2] | 1.27
Cyclo^21,25 [D-Ala^2, Ala^15 ]-GRF(1-29)-NH2 | 1.99
Cyclo^21,25 [desNH2 Tyr^1,Ala^15 ]-GRF(1-29)-NH2 | 1.47

Source: patent publication US5084442A, “Cyclic growth hormone releasing factor analogs and method for the manufacture thereof” (Hoffmann-La Roche Inc., priority 1988, dated 1992)
